In ChEMBL document CHEMBL1201862, “PubChem BioAssay data set” (2004):
Structures can show the parent of a compound that is named as a salt. The source made the active and inactive calls.

Key:
[1] = target: T1, Intestinal-type alkaline phosphatase (Homo sapiens, UniProt P09923); assay: human intestinal alkaline phosphatase activators, dose response, biochemical, luminescence, uHTS hits (AID 463120); format: functional
[2] = target: Intestinal-type alkaline phosphatase (Mus musculus, UniProt P24822); assay: PubChem AID 488874; format: functional
Intestinal-type alkaline phosphatase (Mus musculus, UniProt P24822), sequence (P24822 whole entry): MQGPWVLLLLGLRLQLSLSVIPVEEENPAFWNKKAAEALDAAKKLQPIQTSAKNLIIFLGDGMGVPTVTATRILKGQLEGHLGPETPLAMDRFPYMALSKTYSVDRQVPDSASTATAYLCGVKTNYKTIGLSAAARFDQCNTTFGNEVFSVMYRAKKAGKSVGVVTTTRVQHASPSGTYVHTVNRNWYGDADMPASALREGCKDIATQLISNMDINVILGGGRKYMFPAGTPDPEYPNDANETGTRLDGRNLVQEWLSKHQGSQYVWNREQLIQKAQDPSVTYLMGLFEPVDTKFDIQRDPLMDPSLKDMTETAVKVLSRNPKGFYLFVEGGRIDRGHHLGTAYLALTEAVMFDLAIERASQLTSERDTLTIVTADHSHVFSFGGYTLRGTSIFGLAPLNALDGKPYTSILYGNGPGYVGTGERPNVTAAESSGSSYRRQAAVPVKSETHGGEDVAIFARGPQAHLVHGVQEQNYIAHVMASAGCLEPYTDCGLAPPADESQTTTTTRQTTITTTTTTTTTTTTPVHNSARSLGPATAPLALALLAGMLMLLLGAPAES

[3] = target: T2, Zinc finger protein mex-5 (Caenorhabditis elegans, UniProt Q9XUB2); assay: MEX-5/TCR-2 RNA interaction inhibitors, dose response, biochemical, C. elegans, fluorescence polarization (AID 1960)
T2 sequence (Q9XUB2 whole entry): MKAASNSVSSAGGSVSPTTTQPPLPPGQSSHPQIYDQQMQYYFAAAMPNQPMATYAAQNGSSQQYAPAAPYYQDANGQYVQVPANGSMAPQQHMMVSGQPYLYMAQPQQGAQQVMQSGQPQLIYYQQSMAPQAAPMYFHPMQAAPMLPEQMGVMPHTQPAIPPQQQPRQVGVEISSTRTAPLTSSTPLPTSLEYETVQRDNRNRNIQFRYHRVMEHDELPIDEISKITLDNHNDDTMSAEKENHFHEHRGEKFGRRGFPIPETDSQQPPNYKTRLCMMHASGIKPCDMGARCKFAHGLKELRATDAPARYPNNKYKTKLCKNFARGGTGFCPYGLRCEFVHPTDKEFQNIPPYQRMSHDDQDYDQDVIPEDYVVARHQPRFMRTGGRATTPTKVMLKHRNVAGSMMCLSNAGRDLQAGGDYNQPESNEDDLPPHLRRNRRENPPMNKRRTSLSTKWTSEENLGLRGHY

[4] = target: T3, RNA-binding protein pos-1 (Caenorhabditis elegans, UniProt G5EF15); assay: inhibitors of POS-1/mex-3 RNA binding, dose response, biochemical, fluorescence polarization (AID 1964);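 further: purified POS-1 fused to maltose binding protein made in E. coli; potency of compounds blocking POS-1 binding to fluorescent RNA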
T3 sequence (G5EF15 whole entry): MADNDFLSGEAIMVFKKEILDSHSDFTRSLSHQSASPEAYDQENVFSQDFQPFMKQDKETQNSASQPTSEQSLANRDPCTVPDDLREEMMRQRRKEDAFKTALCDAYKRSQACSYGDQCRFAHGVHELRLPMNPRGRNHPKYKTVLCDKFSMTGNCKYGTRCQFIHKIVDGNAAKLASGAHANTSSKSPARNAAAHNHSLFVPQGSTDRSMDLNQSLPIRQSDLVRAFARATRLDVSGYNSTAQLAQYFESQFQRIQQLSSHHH

SUMO-activating enzyme [5] = target: T4, SUMO-activating enzyme (Homo sapiens, UniProt Q9UBT2); assay: inhibitors of in vitro SUMOylation cascade, primary screen, biochemical, HTRF, uHTS (AID 2006); format: protein-complex assay
T4 sequence (Q9UBE0 whole entry): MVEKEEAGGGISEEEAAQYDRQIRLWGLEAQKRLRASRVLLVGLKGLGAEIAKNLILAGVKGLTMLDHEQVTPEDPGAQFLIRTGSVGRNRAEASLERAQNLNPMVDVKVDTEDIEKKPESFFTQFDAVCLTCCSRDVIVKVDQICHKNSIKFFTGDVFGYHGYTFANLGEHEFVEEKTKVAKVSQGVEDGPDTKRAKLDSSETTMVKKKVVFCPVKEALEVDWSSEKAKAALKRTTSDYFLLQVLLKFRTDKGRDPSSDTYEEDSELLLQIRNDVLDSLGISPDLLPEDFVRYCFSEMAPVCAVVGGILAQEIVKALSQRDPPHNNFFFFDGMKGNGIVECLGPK
T4 sequence (Q9UBT2 whole entry): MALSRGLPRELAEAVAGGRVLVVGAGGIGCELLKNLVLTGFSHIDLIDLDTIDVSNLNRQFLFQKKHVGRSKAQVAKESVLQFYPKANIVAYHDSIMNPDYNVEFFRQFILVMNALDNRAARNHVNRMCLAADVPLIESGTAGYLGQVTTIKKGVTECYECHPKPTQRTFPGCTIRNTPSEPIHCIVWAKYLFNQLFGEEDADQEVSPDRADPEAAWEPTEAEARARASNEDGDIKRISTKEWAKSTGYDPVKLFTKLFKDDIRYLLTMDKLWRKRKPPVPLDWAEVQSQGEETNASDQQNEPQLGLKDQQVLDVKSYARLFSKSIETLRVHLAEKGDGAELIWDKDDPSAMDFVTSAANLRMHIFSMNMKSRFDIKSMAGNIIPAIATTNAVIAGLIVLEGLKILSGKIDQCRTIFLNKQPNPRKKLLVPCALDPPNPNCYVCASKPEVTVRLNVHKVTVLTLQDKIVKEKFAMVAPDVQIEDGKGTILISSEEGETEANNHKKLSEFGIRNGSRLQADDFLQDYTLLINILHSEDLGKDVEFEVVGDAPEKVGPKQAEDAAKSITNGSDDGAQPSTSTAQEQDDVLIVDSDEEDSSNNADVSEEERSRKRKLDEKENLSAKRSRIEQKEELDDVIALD

[6] = AlphaScreen signal interference compounds, dose response, artefact control for ARNT-TACC3 interaction inhibitor project, biochemical, luminescence, cherry-pick (AID 651705); format: functional;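 further: AlphaScreen bead proximity signal that flags compounds interfering with the detection technology; potency reflects signal decrease which marks the compound as an assay artifact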
[7] = target: T1, Intestinal-type alkaline phosphatase; assay: human IAP activators, dose response, biochemical, luminescent, uHTS hits, set 2 (AID 488817); format: functional;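 further: potency of activators that raise enzyme activity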
[8] = target: T5, Polyadenylate-binding protein 1 (Homo sapiens, UniProt P11940); assay: PABP1 MLLE–PAM2 binding inhibitor potency, dose response, biochemical, fluorescence polarization, FITC-PAM2 peptide (AID 602259); format: functional; conditions: read-out: IC50_Mean
T5 sequence (P11940 whole entry): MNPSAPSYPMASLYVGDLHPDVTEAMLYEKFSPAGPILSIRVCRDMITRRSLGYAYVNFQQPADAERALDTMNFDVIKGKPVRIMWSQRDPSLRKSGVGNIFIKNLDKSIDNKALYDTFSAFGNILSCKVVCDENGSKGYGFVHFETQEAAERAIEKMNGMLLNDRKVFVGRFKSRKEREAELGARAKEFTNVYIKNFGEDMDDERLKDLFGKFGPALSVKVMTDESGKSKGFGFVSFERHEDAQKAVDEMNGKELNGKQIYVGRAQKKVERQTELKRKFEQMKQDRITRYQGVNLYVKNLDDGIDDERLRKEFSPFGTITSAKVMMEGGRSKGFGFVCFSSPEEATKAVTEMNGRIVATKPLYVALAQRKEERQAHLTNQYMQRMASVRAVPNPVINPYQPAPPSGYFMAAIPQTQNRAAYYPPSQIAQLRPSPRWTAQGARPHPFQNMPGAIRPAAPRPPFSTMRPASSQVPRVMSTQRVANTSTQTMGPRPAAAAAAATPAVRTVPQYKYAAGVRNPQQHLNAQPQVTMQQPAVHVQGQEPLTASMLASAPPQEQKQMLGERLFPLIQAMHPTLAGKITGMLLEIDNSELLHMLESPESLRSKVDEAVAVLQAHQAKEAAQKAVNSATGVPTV

SUMO-activating enzyme [9] = target: T4, SUMO-activating enzyme; assay: SUMOylation inhibitor hit validation, confirmation, SUMOylation inhibitor project, biochemical, AlphaScreen (AID 2018); format: functional
[10] = target: T5, Polyadenylate-binding protein 1; assay: PABP1 MLLE–PAM2 interaction inhibitors, dose response, miRNA deadenylation inhibitor project, biochemical, fluorescence polarization, Cy5-PAM2 peptide, secondary (AID 602260); format: functional; conditions: read-out: IC50_Mean
[11] = target: T6, Alkaline phosphatase, tissue-nonspecific isozyme (Homo sapiens, UniProt P05186); assay: TNAP enzyme activators, dose response, selectivity assay for human IAP activator project, biochemical, TNAP isozyme, human IAP uHTS hits (AID 488886); format: functional;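 further: potency of compounds raising TNAP activity as a selectivity check on IAP activators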
T6 sequence (P05186 whole entry): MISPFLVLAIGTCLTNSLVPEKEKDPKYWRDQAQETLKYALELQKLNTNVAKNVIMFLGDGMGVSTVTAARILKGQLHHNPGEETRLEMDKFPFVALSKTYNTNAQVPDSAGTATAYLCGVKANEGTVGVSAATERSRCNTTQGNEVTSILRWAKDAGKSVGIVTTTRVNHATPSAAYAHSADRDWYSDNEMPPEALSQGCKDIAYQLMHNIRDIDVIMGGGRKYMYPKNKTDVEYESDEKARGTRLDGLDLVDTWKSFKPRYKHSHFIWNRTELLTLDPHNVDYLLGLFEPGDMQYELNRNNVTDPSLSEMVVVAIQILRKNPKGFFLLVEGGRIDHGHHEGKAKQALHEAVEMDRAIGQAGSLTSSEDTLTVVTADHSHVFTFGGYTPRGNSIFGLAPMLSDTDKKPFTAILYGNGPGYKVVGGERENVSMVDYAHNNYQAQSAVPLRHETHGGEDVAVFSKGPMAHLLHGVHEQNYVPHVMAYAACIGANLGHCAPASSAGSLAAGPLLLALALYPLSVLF

[12] = target: T7, Dual specificity protein phosphatase 6 (Rattus norvegicus, UniProt Q64346)
T7 sequence (Q64346 whole entry): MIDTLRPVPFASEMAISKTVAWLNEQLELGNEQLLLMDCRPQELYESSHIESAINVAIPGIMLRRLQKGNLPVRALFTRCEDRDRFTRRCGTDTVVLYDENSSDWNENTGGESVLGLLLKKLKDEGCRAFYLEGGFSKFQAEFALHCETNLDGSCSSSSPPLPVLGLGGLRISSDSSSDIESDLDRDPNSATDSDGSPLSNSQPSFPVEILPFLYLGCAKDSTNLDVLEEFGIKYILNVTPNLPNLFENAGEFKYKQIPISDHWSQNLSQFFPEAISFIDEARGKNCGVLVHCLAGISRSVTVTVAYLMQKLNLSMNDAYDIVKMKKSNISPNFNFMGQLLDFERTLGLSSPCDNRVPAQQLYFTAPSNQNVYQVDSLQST

[13] = target: T7, Dual specificity protein phosphatase 6; format: functional
[14] = target: T8, Tyrosine-protein phosphatase non-receptor type 7 (Homo sapiens, UniProt P35236); format: functional
T8 sequence (P35236 whole entry): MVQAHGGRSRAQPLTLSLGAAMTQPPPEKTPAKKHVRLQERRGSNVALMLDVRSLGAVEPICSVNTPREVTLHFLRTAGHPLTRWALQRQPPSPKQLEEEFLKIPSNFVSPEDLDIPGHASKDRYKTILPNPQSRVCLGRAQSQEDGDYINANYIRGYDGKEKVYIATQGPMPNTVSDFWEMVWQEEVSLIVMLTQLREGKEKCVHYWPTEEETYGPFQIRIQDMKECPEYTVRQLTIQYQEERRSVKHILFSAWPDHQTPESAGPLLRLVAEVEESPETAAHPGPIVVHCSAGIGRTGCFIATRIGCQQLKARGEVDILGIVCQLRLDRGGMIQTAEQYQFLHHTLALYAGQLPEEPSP

[15] = target: Glyceraldehyde-3-phosphate dehydrogenase (Homo sapiens, UniProt P04406)
Glyceraldehyde-3-phosphate dehydrogenase, sequence (P04406 whole entry): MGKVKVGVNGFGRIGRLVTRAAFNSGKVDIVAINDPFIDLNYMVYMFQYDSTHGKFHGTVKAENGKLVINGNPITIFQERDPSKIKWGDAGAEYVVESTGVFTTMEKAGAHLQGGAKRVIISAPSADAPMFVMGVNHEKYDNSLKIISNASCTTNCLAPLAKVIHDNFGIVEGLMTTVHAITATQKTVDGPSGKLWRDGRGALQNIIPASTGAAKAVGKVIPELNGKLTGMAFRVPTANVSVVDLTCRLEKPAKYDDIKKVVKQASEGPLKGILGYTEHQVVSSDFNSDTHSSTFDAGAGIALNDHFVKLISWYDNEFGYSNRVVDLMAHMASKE

[16] = NIH-3T3 fibroblast cytotoxicity, dose response, cytotoxicity control, cell-based, fluorescence, Alamar Blue, secondary assay (AID 2327); format: functional;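 further: NIH-3T3 mouse fibroblasts cultured with fluconazole at 8 µg/mL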
[17] = target: Eukaryotic translation initiation factor 4H (Homo sapiens, UniProt Q15056); assay: human eIF4H binding inhibitors, primary screen, translation initiation inhibitor project, biochemical, uHTS, fluorescence polarization (AID 2012)
Protein Tat = Protein Tat (Human immunodeficiency virus type 1 group M subtype B (isolate HXB2)(HIV-1), UniProt P04608); format: functional;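 further: tat binding to TAR RNA read out by fluorescence polarization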
Protein Tat, sequence (P04608 whole entry): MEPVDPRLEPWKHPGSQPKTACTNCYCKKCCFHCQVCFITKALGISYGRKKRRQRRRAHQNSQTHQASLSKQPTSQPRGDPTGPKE

[18] = C. albicans growth with fluconazole, confirmation, fluorescence, retest (AID 2467); format: functional, cell-based
[19] = target: T5, Polyadenylate-binding protein 1; assay: PABP poly(A) RNA binding inhibitors, primary screen, biochemical, fluorescence polarization, uHTS (AID 2014)
Genome polyprotein = Genome polyprotein (dengue virus type 2, UniProt P29990); assay: Dengue-2 NS5 methyltransferase inhibitors, primary screen, biochemical, confirmation dose response (AID 588689); format: functional
Genome polyprotein, sequence (P29990 2492-3391 limits assumed): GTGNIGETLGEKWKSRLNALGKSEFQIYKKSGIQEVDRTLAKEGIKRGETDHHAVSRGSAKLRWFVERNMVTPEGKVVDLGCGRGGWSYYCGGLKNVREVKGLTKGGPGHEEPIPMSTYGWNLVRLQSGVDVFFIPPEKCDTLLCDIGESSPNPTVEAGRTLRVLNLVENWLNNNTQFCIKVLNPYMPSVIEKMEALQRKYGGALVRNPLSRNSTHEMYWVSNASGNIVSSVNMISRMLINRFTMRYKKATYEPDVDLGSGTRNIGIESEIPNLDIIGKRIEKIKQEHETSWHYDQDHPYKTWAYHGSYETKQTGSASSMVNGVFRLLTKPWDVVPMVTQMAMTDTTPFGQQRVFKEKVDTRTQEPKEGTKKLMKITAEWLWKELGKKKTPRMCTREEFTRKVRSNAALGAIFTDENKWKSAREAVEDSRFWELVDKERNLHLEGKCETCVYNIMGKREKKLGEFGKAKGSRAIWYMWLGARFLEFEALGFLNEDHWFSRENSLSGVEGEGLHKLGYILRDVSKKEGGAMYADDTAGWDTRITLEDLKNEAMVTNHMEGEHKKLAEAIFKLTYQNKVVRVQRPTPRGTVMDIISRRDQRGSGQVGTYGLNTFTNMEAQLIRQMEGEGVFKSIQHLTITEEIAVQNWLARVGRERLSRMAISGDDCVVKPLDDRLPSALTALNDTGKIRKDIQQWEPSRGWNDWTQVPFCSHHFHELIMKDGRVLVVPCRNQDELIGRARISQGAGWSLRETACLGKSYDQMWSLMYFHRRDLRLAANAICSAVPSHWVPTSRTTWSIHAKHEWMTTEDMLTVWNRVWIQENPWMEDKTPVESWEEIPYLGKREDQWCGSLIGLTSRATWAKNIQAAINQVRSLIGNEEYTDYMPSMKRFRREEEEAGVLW

Estrogen receptor beta = Estrogen receptor beta (Homo sapiens, UniProt Q92731);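 further: recombinant ER-beta bound to coactivator SRC1 peptide in presence of estradiol agonist; inhibitors block coactivator peptide binding and lower the FRET signal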
Estrogen receptor beta, sequence (Q92731 whole entry): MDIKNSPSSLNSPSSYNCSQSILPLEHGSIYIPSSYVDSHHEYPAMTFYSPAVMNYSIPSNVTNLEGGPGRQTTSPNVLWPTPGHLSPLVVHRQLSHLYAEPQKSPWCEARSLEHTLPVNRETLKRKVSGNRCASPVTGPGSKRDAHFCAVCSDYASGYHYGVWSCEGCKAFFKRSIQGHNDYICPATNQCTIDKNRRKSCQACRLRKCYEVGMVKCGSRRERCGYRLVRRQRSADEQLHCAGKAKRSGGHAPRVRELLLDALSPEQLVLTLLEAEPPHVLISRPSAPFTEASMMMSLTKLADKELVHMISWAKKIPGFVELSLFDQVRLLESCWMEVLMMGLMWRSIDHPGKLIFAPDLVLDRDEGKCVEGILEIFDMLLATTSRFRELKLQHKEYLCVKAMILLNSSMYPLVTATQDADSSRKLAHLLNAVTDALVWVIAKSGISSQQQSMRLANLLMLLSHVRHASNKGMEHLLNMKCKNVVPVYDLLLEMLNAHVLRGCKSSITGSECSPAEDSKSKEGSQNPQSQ

H9c2 = assay: cells; format: functional, cell-based; conditions: Rattus norvegicus, H9c2, Myocardium;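 further: confirmatory concentration-response retest of ultra-high-throughput screening hits for modulation of myocardial damage; cell death induced by hydrogen peroxide oxidative stress; compound pretreatment for 60 min then peroxide exposure for 2 h; potency is for protecting the cells against peroxide damage rather than for killing them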
[20] = target: T9, Sentrin-specific protease 1 (Homo sapiens, UniProt Q9P0U3); assay: Dose response confirmation of small molecule inhibitors of the catalytic domain of the SUMO protease, SENP1 in a FRET assay.; format: functional; conditions: read-out: IC50_Mean
T9 sequence (Q9P0U3 whole entry): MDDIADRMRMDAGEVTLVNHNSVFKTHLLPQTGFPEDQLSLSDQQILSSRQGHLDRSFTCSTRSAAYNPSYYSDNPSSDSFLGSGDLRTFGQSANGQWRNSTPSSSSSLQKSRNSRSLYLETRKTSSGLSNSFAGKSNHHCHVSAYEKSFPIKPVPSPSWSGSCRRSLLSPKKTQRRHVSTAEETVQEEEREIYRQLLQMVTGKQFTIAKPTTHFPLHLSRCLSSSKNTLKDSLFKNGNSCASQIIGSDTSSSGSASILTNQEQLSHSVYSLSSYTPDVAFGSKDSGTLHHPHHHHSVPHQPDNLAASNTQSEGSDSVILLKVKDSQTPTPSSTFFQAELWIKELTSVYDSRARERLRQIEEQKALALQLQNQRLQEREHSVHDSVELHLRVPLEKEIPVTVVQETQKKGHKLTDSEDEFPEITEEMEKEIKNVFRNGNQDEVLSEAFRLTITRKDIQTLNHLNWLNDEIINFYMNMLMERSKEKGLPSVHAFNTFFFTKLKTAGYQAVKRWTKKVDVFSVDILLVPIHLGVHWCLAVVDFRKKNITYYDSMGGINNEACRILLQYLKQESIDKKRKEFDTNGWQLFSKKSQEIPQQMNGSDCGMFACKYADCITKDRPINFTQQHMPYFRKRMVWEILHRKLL

[21] = target: Female germline-specific tumor suppressor gld-1 (Caenorhabditis elegans, UniProt Q17339); assay: inhibitors of GLD-1 binding to TGE RNA, dose response, biochemical, fluorescence polarization, C. elegans (AID 2802);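 further: fluorescence polarization of labeled TGE RNA bound by purified gld-1 protein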
[22] = target: T9, Sentrin-specific protease 1; assay: potency of human SENP1 inhibitors, dose response, biochemical, kinetic FRET (AID 651697); format: functional; conditions: read-out: IC50_Mean
[23] = HEp-2 cell cytotoxicity, dose response, cytotoxicity control for RSV inhibitor project, HTS (AID 2410); format: functional; conditions: human respiratory syncytial virus
Protein Rev = Protein Rev (Human immunodeficiency virus type 1 group M subtype B (isolate HXB2)(HIV-1), UniProt P04618); assay: inhibitors of Rev binding to RRE RNA, dose response, biochemical, fluorescence polarization, HIV-1 (AID 434976); set-up: species or system Human immunodeficiency virus 1
Protein Rev, sequence (P04618 whole entry): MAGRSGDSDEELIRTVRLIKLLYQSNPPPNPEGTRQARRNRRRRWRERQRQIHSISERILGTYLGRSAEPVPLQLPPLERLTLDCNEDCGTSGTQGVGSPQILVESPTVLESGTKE

T1 sequence (P09923 whole entry): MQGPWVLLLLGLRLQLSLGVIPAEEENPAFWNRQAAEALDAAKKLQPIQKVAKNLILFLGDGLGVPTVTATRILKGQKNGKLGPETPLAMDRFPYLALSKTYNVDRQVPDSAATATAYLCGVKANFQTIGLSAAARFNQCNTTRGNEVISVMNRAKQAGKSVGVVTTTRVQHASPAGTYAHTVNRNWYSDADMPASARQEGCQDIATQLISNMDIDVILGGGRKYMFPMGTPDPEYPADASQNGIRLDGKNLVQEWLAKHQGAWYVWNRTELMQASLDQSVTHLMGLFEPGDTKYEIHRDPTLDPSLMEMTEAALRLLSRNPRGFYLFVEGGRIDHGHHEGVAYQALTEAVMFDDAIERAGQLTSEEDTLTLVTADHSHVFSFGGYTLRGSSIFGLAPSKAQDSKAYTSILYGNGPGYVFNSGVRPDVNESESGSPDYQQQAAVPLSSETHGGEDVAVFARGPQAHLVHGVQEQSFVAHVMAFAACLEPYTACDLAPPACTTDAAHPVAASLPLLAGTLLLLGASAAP

NC(CO)C(=O)NNCc1ccc(O)c(O)c1O (stereo not drawn) [BENSERAZIDE HYDROCHLORIDE]
EC50 [1]: 5.47 µM (active) | IC50 [2]: 50.9 µM (active) | EC50 [3]: 0.112 µM (active) | EC50 [4]: 37.5 µM (active) | IC50 (SUMO-activating enzyme [5]): 23.2 µM (active) | AC50 [6]: 96.7 µM (active) | EC50 [7]: 8.88 µM (active) | IC50 [8]: 45 µM (inactive) | IC50 (SUMO-activating enzyme [9]): 1.66 µM (active) | IC50 [10]: > 66 µM (inactive) | EC50 [11]: > 100 µM (inactive)

O=C(O)C1Nc2cc(C(F)(F)F)ccc2S(=O)(=O)N1 (stereo not drawn)
IC50 [12]: > 100 µM (inactive) | IC50 [13]: > 100 µM (inactive) | IC50 [14]: > 100 µM (not active) | IC50 [15]: > 100 µM (not active)

Oc1ccc(/C=N/NP(=S)(c2ccccc2)c2ccccc2)c(O)c1O
EC50 [16]: > 150 µM (inactive) | IC50 [17]: 65.3 µM (active) | IC50 (Protein Tat): 25.3 µM (inconclusive) | EC50 [18]: > 38 µM (not active) | IC50 [19]: > 100 µM (inactive) | IC50 (Genome polyprotein): > 100 µM (active)

COc1ccc(Nc2nnc(SCc3cc(=O)n4ccsc4n3)s2)cc1
IC50 (Estrogen receptor beta): > 50 µM (not active) | IC50 (H9c2): 7.45 µM (active) | IC50 [20]: 16.3 µM (active) | IC50 [21]: 45.5 µM (inactive) | IC50 [22]: 26.2 µM (inactive) | CC50 [23]: 36.5 µM (active) | IC50 (Protein Rev): > 75.4 µM (not active)
